This note sets out measurements from patent US6511997B1, “Aminopyrazole derivatives” (Teikoku Hormone Mfg. Co., Ltd., priority 1998, dated 2003).

What is called melting point is the temperature, or range, at which the solid turns liquid. As to `CCCn1nc(-c2ccc(F)cc2)c(-c2ccncc2)c1NC(=O)Cc1ccccc1` [Example 99, 3-(4-Fluorophenyl)-5-phenylacetylamino-1-propyl-4-(4-pyridyl)pyrazole], the melting point was in the range of 176.5 to 178.5 °C.
`COc1ccc(CC(=O)N(C)c2c(-c3ccncc3)c(-c3ccc(F)cc3)nn2C)cc1` [Example 126, 3-(4-Fluorophenyl)-1-methyl-5-[N-methyl-N-(4-methoxyphenylacetyl)amino]-4-(4-pyridyl)pyrazole] returned a melting point of 175.8 to 178.1 °C.
`Cn1nc(-c2ccc(Cl)c(Cl)c2)c(-c2ccncc2)c1NC(=O)Cc1ccc(F)cc1Cl` [Example 115, 5-(2-Chloro-4-fluorophenylacetylamino)-3-(3,4-dichlorophenyl)-1-methyl-4-(4-pyridyl)pyrazole] registered a melting point of 279.3 to 280.1 °C.
The value for `O=C(Cc1ccc([N+](=O)[O-])cc1)Nc1n[nH]c(-c2ccc(F)cc2)c1-c1ccncc1` [Example 27, 5-(4-Fluorophenyl)-3-(4-nitrophenylacetylamino)-4-(4-pyridyl)pyrazole] was 299.3 to 302.3 °C; that for `O=C(CCc1ccccc1)Nc1n[nH]c(-c2ccc(F)cc2)c1-c1ccncc1` [Example 2, 5-(4-Fluorophenyl)-3-(3-phenylpropionylamino)-4-(4-pyridyl)pyrazole] was 253.5 to 255.1 °C.
The value for `Cn1nc(-c2ccc(F)cc2)c(-c2ccncc2)c1NC(=O)Cc1ccc(OCc2ccccc2)cc1` [Example 70, 5-(4-Benzyloxyphenylacetylamino)-3-(4-fluorophenyl)-1-methyl-4-(4-pyridyl)pyrazole] was 147.8 to 150.1 °C.
The value for `O=C(Cc1ccccc1Cl)Nc1n[nH]c(-c2ccc(F)cc2)c1-c1ccncc1` [Example 24, 3-(2-chlorophenylacetylamino)-5-(4-fluorophenyl)-4-(4-pyridyl)pyrazole] was 238.8 to 240.1 °C; that for `O=C(Cc1ccccc1)Nc1c(-c2ccncc2)c(-c2ccc(F)cc2)nn1CCO` [Example 105, 3-(4-Fluorophenyl)-1-(2-hydroxyethyl)-5-phenylacetylamino-4-(4-pyridyl)pyrazole] was 180.3 to 183.6 °C; that for `CN(C(=O)Cc1ccccc1Cl)c1c(-c2ccncc2)c(-c2ccc(F)cc2)nn1-c1ccccc1` [Example 130, 3-(4-Fluorophenyl)-5-[N-methyl-N-(2-chlorophenylacetyl)amino]-1-phenyl-4-(4-pyridyl)pyrazole] was 203.8 to 205.6 °C.
For the compound `Cn1nc(-c2ccc(F)cc2)c(-c2ccncc2)c1NC(=O)Cc1ccc(Br)cc1` [Example 59, 5-(4-Bromophenylacetylamino)-3-(4-fluorophenyl)-1-methyl-4-(4-pyridyl)pyrazole], the melting point fell in the range of 199.8 to 202.1 °C.
The value for `Cn1nc(-c2ccc(F)cc2)c(-c2ccncc2)c1NC(=O)Cc1cccc(F)c1` [Example 61, 3-(4-Fluorophenyl)-5-(3-fluorophenylacetylamino)-1-methyl-4-(4-pyridyl)pyrazole] was 196.9 to 199.1 °C; that for `Cn1nc(-c2ccc(F)cc2)c(-c2ccncc2)c1NC(=O)Cc1cc(F)cc(F)c1` [Example 48, 5-(3,5-Difluorophenylacetylamino)-3-(4-fluorophenyl)-1-methyl-4-(4-pyridyl)pyrazole] was 208.5 to 210.2 °C.
The compound `Cn1nc(-c2ccc(F)cc2)c(-c2ccncc2)c1NC(=O)Cc1ccc(Cl)c(Cl)c1` [Example 37, 5-(3,4-Dichlorophenylacetylamino)-3-(4-fluorophenyl)-1-methyl-4-(4-pyridyl)pyrazole] yielded a melting point of 205.1 to 207 °C.
The value for `COc1ccc(CC(=O)Nc2c(-c3ccncc3)c(-c3ccc(F)cc3)nn2C)cc1OC` [Example 42, 5-(3,4-Dimethoxyphenylacetylamino)-3-(4-fluorophenyl)-1-methyl-4-(4-pyridyl)pyrazole] was 128.1 to 129.6 °C.
Regarding `Cn1nc(NC(=O)Cc2ccccc2Cl)c(-c2ccncc2)c1-c1ccc(F)cc1` [Example 118, 3-(2-Chlorophenylacetylamino)-5-(4-fluorophenyl)-1-methyl-4-(4-pyridyl)pyrazole], the melting point is 193.8 to 195.3 °C.
The compound `CC(C)[C@H](N)C(=O)Nc1n[nH]c(-c2ccc(F)cc2)c1-c1ccncc1.Cl` came in with a melting point of 205.3 to 206.4 °C.
The value for `Cn1nc(-c2ccc(F)cc2)c(-c2ccncc2)c1NC(=O)Cc1ccsc1` [Example 80, 3-(4-Fluorophenyl)-1-methyl-4-(4-pyridyl)-5-(3-thienylacetylamino)pyrazole] was 151.9 to 154.6 °C; that for `COc1ccc(CC(=O)Nc2c(-c3ccncc3)c(-c3ccc(F)cc3)nn2C)c(OC)c1` [Example 52, 5-(2,4-Dimethoxyphenylacetylamino)-3-(4-fluorophenyl)-1-methyl-4-(4-pyridyl)pyrazole] was 179.3 to 182.2 °C; that for `Cn1nc(-c2ccc(F)cc2)c(-c2ccncc2)c1NC(=O)Cc1ccc(O)cc1` [Example 95, 5-(4-hydroxyphenylacetylamino)-3-(4-fluorophenyl)-1-methyl-4-(4-pyridyl)pyrazole] was 127.1 to 128.6 °C.
With `Cn1nc(-c2ccc(F)cc2)c(-c2ccncc2)c1NC(=O)Cc1cc(C(F)(F)F)cc(C(F)(F)F)c1` [Example 45, 5-(3,5-Ditrifluoromethylphenylacetylamino)-3-(4-fluorophenyl)-1-methyl-4-(4-pyridyl)pyrazole], the melting point lay within 228.3 to 230.6 °C.
In turn, `Cn1nc(-c2ccc(F)c(Cl)c2)c(-c2ccncc2)c1NC(=O)Cc1ccc(F)cc1Cl` [Example 112, 3-(3-Chloro-4-fluorophenyl)-5-(2-chloro-4-fluorophenylacetylamino)-1-methyl-4-(4-pyridyl)pyrazole] showed a melting point of 162.8 to 163.9 °C.
Turning to `CCn1nc(-c2ccc(F)cc2)c(-c2ccncc2)c1NC(=O)Cc1ccccc1` [Example 97, 1-Ethyl-3-(4-fluorophenyl)-5-phenylacetylamino-4-(4-pyridyl)pyrazole], the melting point was 219 to 221.2 °C.
For `COc1cccc(CC(=O)Nc2c(-c3ccncc3)c(-c3ccc(F)cc3)nn2C)c1OC` [Example 53, 5-(2,3-Dimethoxyphenylacetylamino)-3-(4-fluorophenyl)-1-methyl-4-(4-pyridyl)pyrazole], the melting point is 185.4 to 193.4 °C.
The value for `Cn1nc(-c2ccc(F)cc2)c(-c2ccncc2)c1NC(=O)Nc1ccccc1` [Example 136, 3-(4-fluorophenyl)-1-methyl-5-(phenylaminocarbonylamino)-4-(4-pyridyl)pyrazole] was 287.5 to 290.2 °C; that for `Cn1nc(-c2ccc(F)cc2)c(-c2ccncc2)c1NC(=O)Cc1ccccc1F` [Example 60, 3-(4-Fluorophenyl)-5-(2-fluorophenylacetylamino)-1-methyl-4-(4-pyridyl)pyrazole] was 196.8 to 198.1 °C; that for `CCCCC(=O)Nc1n[nH]c(-c2ccc(F)cc2)c1-c1ccncc1` [Example 20, 5-(4-Fluorophenyl)-4-(4-pyridyl)-3-valerylaminopyrazole] was 273.7 to 275.8 °C.
Consider `COc1ccccc1CC(=O)Nc1c(-c2ccncc2)c(-c2ccc(F)cc2)nn1CCO` [Example 104, 3-(4-fluorophenyl)-1-(2-hydroxyethyl)-5-(2-methoxyphenylacetylamino)-4-(4-pyridyl)pyrazole], for which the melting point lay in the range of 200.6 to 204.2 °C.
Compound `COCC(=O)Nc1n[nH]c(-c2ccc(F)cc2)c1-c1ccncc1` [Example 15, 5-(4-Fluorophenyl)-3-methoxyacetylamino-4-(4-pyridyl)pyrazole] had a melting point of 246 to 248 °C.
The value for `CC(C)CC(=O)Nc1n[nH]c(-c2ccc(F)cc2)c1-c1ccncc1` [Example 19, 5-(4-Fluorophenyl)-3-isovalerylamino-4-(4-pyridyl)pyrazole] was 291.1 to 294 °C.
Regarding `C[C@H](NC(=O)OCc1ccccc1)C(=O)Nc1n[nH]c(-c2ccc(F)cc2)c1-c1ccncc1` [Example 84, 3-(N′-carbobenzoxy-L-alanylamino)-5-(4-fluorophenyl)-4-(4-pyridyl)pyrazole], the melting point lay within 190 to 191.3 °C.
The value for `Cn1nc(-c2ccc(F)cc2)c(-c2ccncc2)c1NC(=O)C(F)c1ccccc1` (stereo not drawn) [Example 74, 3-(4-Fluorophenyl)-5-(α-fluorophenylacetylamino)-1-methyl-4-(4-pyridyl)pyrazole] was 92.1 to 96.1 °C.
The value for `C[C@H](N)C(=O)Nc1n[nH]c(-c2ccc(F)cc2)c1-c1ccncc1.Cl` was 210.2 to 211.5 °C.
The value for `Cc1cc(C)cc(CC(=O)Nc2c(-c3ccncc3)c(-c3ccc(F)cc3)nn2C)c1` [Example 50, 5-(3,5-Dimethylphenylacetylamino)-3-(4-fluorophenyl)-1-methyl-4-(4-pyridyl)pyrazole] was 211.2 to 212.4 °C; that for `Cn1nc(-c2ccc(Cl)c(Cl)c2)c(-c2ccncc2)c1NC(=O)Cc1ccccc1` [Example 111, 3-(3,4-Dichlorophenyl)-1-methyl-5-phenylacetylamino-4-(4-pyridyl)pyrazole] was 198.4 to 199.1 °C.
`O=C(Nc1n[nH]c(-c2ccc(F)cc2)c1-c1ccncc1)C(c1ccccc1)c1ccccc1` [Example 32, 3-Diphenylacetylamino-5-(4-fluorophenyl)-4-(4-pyridyl)pyrazole]: the melting point fell in the range of 266.5 to 269.2 °C.
The value for `O=C(Cc1ccccc1)Nc1n[nH]c(-c2ccc(F)cc2)c1-c1ccnc2ccccc12` [Example 10, 5-(4-Fluorophenyl)-4-(4-quinolyl)-3-phenylacetylaminopyrazole] was 273.4 to 275.3 °C; that for `Cn1cccc1CC(=O)Nc1c(-c2ccncc2)c(-c2ccc(F)cc2)nn1C` [Example 79, 3-(4-Fluorophenyl)-1-methyl-5-(1-methylpyrrol-2-ylacetylamino)-4-(4-pyridyl)pyrazole] was 165.1 to 168.1 °C; that for `Cn1nc(-c2ccc(F)cc2)c(-c2ccncc2)c1NC(=O)Cc1ccccc1` [Example 117, 3-(4-Fluorophenyl)-1-methyl-5-phenylacetylamino-4-(4-pyridyl)pyrazole] was 164.9 to 166.5 °C.
